EP0320006A2, “Uses of 1,4-dihydropyridines” (LABORATOIRES SYNTEX, priority 1987, dated 1989)
Marks after values point to notes of the source that are not given here.

Assays:
dogs = test: Toxicology: three-month oral dosing; format: in vivo
Male CD1 mice = test: Anticonvulsant activity against pentylenetetrazole (PTZ) induced seizures; format: in vivo; conditions: for % Clonic: incidence of clonic seizures; for % Tonic: incidence of tonic seizures
Experimental: The amount of test compound needed to prevent convulsions induced by a fixed amount of pentylenetetrazol can then be determined.
(A) Male CD1 mice (Charles River) are randomly divided into groups of at least 20, and treated with 500 µg/Kg of (S,RS)-2,6-dimethyl-3-carbomethoxy-4-(3-nitrophenyl)-5-(3-[4-(2-tetrahydropyran-2-yloxyethyl)-phenoxy]propoxycarbonyl)-1,4-dihydropyridine (the compound is dissolved in 0.1 mL of ethanol and diluted with 99.9 mL saline and injected intraperitoneally) before subcutaneous administration of 100 mg/Kg pentylenetetrazole ("PTZ", a known convulsant) under the following dosing schedules: (A) 15 minutes prior to PTZ administration; (B) 60 minutes prior to PTZ administration; and (C) b.i.d. for three days prior to PTZ administration, a further dose being given on a fourth day 15 minutes prior to PTZ administration. After PTZ administration, the mice are observed for at least 30 minutes, and the incidence of clonic seizures, tonic seizures, and death is noted. The experiment is terminated by pentobarbitone overdose.

[1] = tested on: CA₁ pyramidal cells in the hippocampus; test: Neuroprotection from ischemic damage: delayed neuronal death after bilateral carotid occlusion; format: in vivo, Mongolian gerbils; conditions: then B.I.D. three days post-ischemia
Experimental: This experimental test is described in the literature by Kirino, T. Brain Research, 239, 57-69 (1982). A detailed description is set forth in Example 3.
Mongolian gerbils of either sex (50-80 g) are treated with a test compound (or control) either intraperitoneally (IP) at 500 mg/kg 15 minutes prior to induction of ischemia followed by B.I.D. dosing for three days post-ischemia, or orally at 5 mg/kg twice daily for 3 out of 4 days and then 15 minutes prior to cerebral ischemia on the 4th day followed by B.I.D. dosing for three days post-ischemia. To facilitate induction of forebrain ischemia the animals are then anesthetized with halothane (5% in 30:70 oxygen:nitrous oxide) delivered by face mask. Following rapid induction, the halothane is decreased to 1.5-2% and maintained at that level for the remainder of the experiment. The left and right common carotid arteries are exposed in the paratracheal region through a ventral midline cervical skin incision and freed from the accompanying vagosympathetic nerve trunks. A loose ligature is placed around the arteries to facilitate identification at the time of occlusion.
The carotid arteries are then bilaterally occluded for 5 minutes using microvascular clips (Ackland C-2-V, Weiss, London). Blood flow is then restored, the wound dusted with antibiotic powder (Cicatrin, Calmic Medical Division, The Wellcome Foundation Ltd., London), and sutured. The subjects are then caged individually and allowed food and water ad libitum. […]
The extent of neuronal death is determined by counting microscopically (at 40x power) all normal and abnormal cells in five fields per hemisphere of the hippocampal CA₁ subfield from the paramedian area to its junction with CA₂ neurons. The field counts are then summed and the mean percentage of dead cells calculated (n=10 fields per brain). Statistical significance was calculated using the Student's t test for unpaired samples, with significance taken at p less than 0.05.

[2] = schedule A: 500 µg/Kg intraperitoneally 15 minutes prior to PTZ 100 mg/Kg s.c.
[3] = schedule B: 500 µg/Kg intraperitoneally 60 minutes prior to PTZ 100 mg/Kg s.c.
[4] = schedule C: 500 µg/Kg intraperitoneally b.i.d. for three days, further dose on fourth day 15 minutes prior to PTZ 100 mg/Kg s.c.

COC(=O)C1=C(C)NC(C)=C(C(=O)OCCCOc2ccc(CCOC3CCCCO3)cc2)[C@H]1c1cccc([N+](=O)[O-])c1 (mixture of isomers) [X, (S,RS)-2,6-dimethyl-3-carbomethoxy-4-(3-nitrophenyl)-5-[3-(4-[2-(tetrahydropyran-2-yloxy)ethyl]phenoxy)propoxycarbonyl]-1,4-dihydropyridine]
pathological change (dogs; oral dosing of dogs for three months at 1.5 and 10 mg/kg/day): did not produce any pathological change
urine analysis (dogs; oral dosing of dogs for three months, all doses): normal
Ophthalmoscopy (dogs; oral dosing of dogs for three months, all doses, throughout the study): remained normal
anticonvulsant activity (Male CD1 mice; PTZ test in mice, statement in words): demonstrates anticonvulsant activity
% Death (Male CD1 mice; [2]): 38.1* %
% Clonic (Male CD1 mice; [2]): 90.5%
% Tonic (Male CD1 mice; [2]): 90.5%
% Death (Male CD1 mice; [3]): 35* %
% Clonic (Male CD1 mice; [3]): 80%
% Tonic (Male CD1 mice; [3]): 40*** %
% Death (Male CD1 mice; [4]): 60%
% Clonic (Male CD1 mice; [4]): 65** %
% Tonic (Male CD1 mice; [4]): 55%
Percentage abnormal neurone count ([1]; intraperitoneal administration, PEG 300 + water, 500 mg/kg 15 minutes prior to ischemia, 5 minutes occlusion, counted at 72 hours): 6.6 ± 0.8%
Percentage abnormal neurone count ([1]; intraperitoneal administration, alcoholic vehicle, 500 mg/kg 15 minutes prior to ischemia, 5 minutes occlusion, counted at 72 hours): 5.6 ± 0.3%
Percentage abnormal neurone count ([1]; oral, PEG 300 + vehicle, 5 mg/kg twice daily 3 out of 4 days, 15 minutes prior to ischemia on 4th day): 58.0 ± 5.0%
